Experimental data taken from patent publication US20180298024A1, “CORTISTATIN ANALOGS AND USES THEREOF” (President and Fellows of Harvard College, priority 2015, published 2018).

Assays:
[1] = tested on: OCI-AML2; test: Half-maximal growth inhibition (GI50), OCI-AML2; assay type: cell-based; conditions: Homo sapiens, 240 h, AML, M4, DNMT3A R635W, read-out: GI50 (nM), day 10
Protocol: (§1) Compounds A, B, C, D, and F were tested against various cell lines to probe their broad utility against cancer. Cortistatin A (CA) was also tested against the cell lines in a head to head fashion.

[2] = biological target: T1, Phosphodiesterase PDE3 (Homo sapiens, UniProt Q14432); test: Panlab assay, Phosphodiesterase PDE3; assay type: biochemical; conditions: read-out: IC50, inhibition of Phosphodiesterase PDE3 activity
T1 construct: Eurofins Panlabs
Protocol: (§2) Compounds A, B, C, and D were tested in Panlab assays to evaluate potential off-target activity using standard assay kits. Methods employed in these studies have been adapted from the scientific literature to maximize reliability and reproducibility.
(§3) IC50 values were determined by a non-linear, least squares regression analysis using MathIQ™ (ID Business Solutions Ltd., UK). […] Where presented, the Hill coefficient (nH), defining the slope of the competitive binding curve, was calculated using MathIQ™.

[3] = biological target: T2, Opiate μ(OP3, MOP) (Homo sapiens, UniProt P35372); test: Panlab assay, Opiate μ(OP3, MOP); assay type: binding
T2 construct: Eurofins Panlabs
Protocol: as §2, §3

[4] = tested on: 320 protein kinases; test: 33PanQinase radiometric kinase assay, kinome profiling; assay type: biochemical, human; conditions: 1 μM; 320 kinases; initial test
Protocol: (§4) A radiometric protein kinase assay (33PanQinase Activity Assay) was used for measuring the kinase activity of the 320 protein kinases. All kinase assays were performed in 96-well FlashPlates™ from Perkin Elmer (Boston, Mass., USA) in a 50 μl reaction volume. The reaction cocktail was pipetted in 4 steps in the following order: • 1. 10 μl of non-radioactive ATP solution (in H2O) • 2. 25 μl of assay buffer/[γ-33P]-ATP mixture • 3. 5 μl of test sample in 10% DMSO • 4. 10 μl of enzyme/substrate mixture
(§5) All PKC assays (except the PKC-mu and the PKC-nu assay) additionally contained 1 mM CaCl2, 4 mM EDTA, 5 μg/ml phosphatidylserine and 1 μg/ml 1,2-dioleyl-glycerol.
The CAMKID, CAMK2A, CAMK2B, CAMK2D, CAMK4, CAMKK1, CAMKK2, DAPK2, EEF2K, MYLK, MYLK2 and MYLK3 assays additionally contained 1 μg/ml Calmodulin and 0.5 mM CaCl2). […] Incorporation of 33Pi (counting of “cpm”) was determined with a microplate scintillation counter (Microbeta, Wallac). […]
Kinases from external vendors CAR=Carna Biosciences Inc.; INV=Life Technologies (Invitrogen Corporation); MIL=Merck-Millipore (Millipore Corporation) were expressed, purified and quality-controlled by virtue of the vendors readings.
For each kinase, the median value of the cpm of three wells was defined as “low control” (n=3). […] The residual activity (in %) for each compounds well was calculated by using the following formula: […]

[5] = biological target: T3, Adenosine Transporter (Cavia porcellus, UniProt H0V4R7); test: Panlab assay, Adenosine Transporter; assay type: binding
T3 sequence (H0V4R7 1-461): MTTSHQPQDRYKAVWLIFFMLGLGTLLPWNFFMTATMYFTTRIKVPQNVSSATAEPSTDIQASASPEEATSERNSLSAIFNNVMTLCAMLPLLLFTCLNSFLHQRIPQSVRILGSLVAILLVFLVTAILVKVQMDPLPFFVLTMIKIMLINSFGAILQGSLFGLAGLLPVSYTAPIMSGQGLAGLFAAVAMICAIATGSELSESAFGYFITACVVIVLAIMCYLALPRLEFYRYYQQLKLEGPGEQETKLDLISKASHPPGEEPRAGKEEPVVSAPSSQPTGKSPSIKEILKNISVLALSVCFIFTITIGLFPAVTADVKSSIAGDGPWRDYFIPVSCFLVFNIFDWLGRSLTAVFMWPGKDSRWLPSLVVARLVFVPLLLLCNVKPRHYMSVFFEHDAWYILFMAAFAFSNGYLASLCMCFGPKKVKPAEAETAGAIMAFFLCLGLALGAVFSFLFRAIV
Protocol: as §2, with “reproducibility. Reference standards were run as an integral part of each assay to ensure the validity of the results obtained.” for “reproducibility.”
IC50 values were determined by a non-linear, least squares regression analysis using MathIQ™ (ID Business Solutions Ltd., UK). Where inhibition constants (Ki) are presented, the Ki values were calculated using the equation of Cheng and Prusoff (Cheng, Y., Prusoff, W. H., Biochem. Pharmacol. 22:3099-3108, 1973) using the observed IC50 of the tested compound, the concentration of radioligand employed in the assay, and the historical values for the KD of the ligand (obtained experimentally at Eurofins Panlabs, Inc.). Where presented, the Hill coefficient (nH), defining the slope of the competitive binding curve, was calculated using MathIQ™.

[6] = biological target: T4, ALK (Homo sapiens, UniProt Q9UM73); test: 33PanQinase radiometric kinase assay, ALK; assay type: biochemical; conditions: in vitro, read-out: percent inhibition of ALK
T4 construct: purchased ProQinase; host or cells: Sf9 insect cells or E. coli
Protocol: as §4, §5
The CAMKID, CAMK2A, CAMK2B, CAMK2D, CAMK4, CAMKK1, CAMKK2, DAPK2, EEF2K, MYLK, MYLK2 and MYLK3 assays additionally contained 1 μg/ml Calmodulin and 0.5 mM CaCl2). The PRKG1 and PRKG2 assays additionally contained 1 μM cGMP. The DNA-PK assay additionally contained 2.5 μg/ml DNA. […] Incorporation of 33Pi (counting of “cpm”) was determined with a microplate scintillation counter (Microbeta, Wallac). […]
For each kinase, the median value of the cpm of three wells was defined as “low control” (n=3). This value reflects unspecific binding of radioactivity to the plate in the absence of a protein kinase but in the presence of the substrate. […] The residual activity (in %) for each compounds well was calculated by using the following formula: […]

[7] = tested on: K562; test: Half-maximal growth inhibition (GI50), K562; assay type: cell-based; conditions: Homo sapiens, 240 h, CML, BCR-Abl, read-out: GI50 (nM), day 10
Protocol: as §1

T2 sequence (P35372 whole entry): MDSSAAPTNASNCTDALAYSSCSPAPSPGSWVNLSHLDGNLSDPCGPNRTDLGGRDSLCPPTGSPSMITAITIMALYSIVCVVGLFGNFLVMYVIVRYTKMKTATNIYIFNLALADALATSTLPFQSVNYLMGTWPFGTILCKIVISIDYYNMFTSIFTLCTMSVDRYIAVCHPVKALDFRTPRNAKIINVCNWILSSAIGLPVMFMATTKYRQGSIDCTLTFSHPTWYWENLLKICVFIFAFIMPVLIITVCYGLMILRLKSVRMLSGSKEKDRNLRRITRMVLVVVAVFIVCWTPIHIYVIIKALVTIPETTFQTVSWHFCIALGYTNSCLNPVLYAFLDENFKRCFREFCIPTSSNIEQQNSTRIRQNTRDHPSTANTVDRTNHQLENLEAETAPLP
T4 sequence (Q9UM73 19-1620): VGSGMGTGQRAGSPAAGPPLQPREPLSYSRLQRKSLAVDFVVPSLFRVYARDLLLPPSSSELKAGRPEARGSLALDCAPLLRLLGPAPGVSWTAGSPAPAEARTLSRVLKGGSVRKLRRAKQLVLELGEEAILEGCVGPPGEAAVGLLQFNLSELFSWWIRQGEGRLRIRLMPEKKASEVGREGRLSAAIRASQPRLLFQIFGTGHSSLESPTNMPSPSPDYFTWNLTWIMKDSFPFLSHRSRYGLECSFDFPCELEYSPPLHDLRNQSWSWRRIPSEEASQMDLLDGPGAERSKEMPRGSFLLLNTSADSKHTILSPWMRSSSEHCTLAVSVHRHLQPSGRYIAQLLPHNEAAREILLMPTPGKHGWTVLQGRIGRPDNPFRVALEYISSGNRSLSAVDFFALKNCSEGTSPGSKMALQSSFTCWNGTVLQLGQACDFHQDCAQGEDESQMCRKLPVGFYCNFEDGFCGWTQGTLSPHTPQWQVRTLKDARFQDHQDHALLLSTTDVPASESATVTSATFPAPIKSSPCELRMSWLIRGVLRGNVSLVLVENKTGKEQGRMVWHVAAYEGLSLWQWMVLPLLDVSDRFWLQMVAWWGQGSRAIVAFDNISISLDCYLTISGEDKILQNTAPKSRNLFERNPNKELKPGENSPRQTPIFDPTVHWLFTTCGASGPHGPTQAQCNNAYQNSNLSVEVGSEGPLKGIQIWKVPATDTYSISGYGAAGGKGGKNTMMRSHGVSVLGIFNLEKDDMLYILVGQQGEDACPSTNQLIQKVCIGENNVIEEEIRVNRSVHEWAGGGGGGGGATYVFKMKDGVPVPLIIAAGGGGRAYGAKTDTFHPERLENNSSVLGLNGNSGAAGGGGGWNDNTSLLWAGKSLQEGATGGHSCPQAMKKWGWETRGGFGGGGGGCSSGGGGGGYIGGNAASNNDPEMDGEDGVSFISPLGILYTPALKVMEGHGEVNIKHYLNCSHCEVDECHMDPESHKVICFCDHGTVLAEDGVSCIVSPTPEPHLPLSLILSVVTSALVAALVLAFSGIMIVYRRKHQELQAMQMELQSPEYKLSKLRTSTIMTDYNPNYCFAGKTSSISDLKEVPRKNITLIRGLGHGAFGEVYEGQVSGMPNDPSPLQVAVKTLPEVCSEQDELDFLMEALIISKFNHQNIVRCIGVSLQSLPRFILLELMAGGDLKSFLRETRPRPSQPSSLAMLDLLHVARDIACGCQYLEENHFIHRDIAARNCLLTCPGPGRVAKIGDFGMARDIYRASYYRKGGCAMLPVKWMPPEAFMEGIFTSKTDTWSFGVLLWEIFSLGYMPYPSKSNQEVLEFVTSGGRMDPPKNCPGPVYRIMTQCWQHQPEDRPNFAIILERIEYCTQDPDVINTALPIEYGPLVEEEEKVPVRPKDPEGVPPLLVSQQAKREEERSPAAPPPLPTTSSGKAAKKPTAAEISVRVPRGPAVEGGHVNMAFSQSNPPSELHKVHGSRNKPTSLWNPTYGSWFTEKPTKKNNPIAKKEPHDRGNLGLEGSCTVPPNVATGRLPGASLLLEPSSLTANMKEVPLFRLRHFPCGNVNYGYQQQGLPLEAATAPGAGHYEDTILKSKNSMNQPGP
T1 sequence (Q14432 whole entry): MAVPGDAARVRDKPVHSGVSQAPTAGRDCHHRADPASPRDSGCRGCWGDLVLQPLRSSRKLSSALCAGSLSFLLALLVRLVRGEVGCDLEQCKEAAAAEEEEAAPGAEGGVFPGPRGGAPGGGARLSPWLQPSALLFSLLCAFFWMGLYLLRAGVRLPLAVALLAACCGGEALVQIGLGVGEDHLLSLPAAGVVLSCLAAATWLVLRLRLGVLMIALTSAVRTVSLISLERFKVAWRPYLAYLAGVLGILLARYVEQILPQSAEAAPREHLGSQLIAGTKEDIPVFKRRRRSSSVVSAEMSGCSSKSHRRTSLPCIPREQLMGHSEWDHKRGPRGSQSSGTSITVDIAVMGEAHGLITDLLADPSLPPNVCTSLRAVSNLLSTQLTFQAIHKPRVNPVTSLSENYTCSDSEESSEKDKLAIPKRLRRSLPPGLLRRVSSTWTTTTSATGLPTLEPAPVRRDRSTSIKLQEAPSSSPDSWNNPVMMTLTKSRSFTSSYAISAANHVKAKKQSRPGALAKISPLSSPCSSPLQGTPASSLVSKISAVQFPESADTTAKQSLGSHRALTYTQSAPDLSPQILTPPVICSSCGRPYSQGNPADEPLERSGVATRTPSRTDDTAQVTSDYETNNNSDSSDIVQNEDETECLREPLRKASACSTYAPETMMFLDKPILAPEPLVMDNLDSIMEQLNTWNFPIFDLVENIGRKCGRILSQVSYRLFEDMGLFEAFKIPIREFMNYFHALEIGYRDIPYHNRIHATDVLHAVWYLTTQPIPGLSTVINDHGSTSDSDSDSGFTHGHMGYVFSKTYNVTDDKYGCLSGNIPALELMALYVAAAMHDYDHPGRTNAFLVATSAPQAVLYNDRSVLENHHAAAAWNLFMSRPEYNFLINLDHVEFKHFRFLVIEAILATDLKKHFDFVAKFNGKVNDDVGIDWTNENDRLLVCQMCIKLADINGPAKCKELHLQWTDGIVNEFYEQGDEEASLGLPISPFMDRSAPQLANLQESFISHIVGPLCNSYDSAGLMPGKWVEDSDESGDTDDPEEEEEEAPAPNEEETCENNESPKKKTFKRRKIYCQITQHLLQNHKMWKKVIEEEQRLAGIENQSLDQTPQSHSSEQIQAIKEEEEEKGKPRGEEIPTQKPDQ

Row | Compound | GI50 [1] | IC50 [2] | IC50 [3] | nH (Hill coefficient), Opiate μ(OP3, MOP) [3] | Ki ([3]; Cheng and Prusoff) | number of kinases with an average of >50% inhibition [4] | IC50 [5] | nH (Hill coefficient), Adenosine Transporter [5] | Ki ([5]; Cheng and Prusoff) | inhibition at 1 µM [6] | GI50 [7]
1 | C[C@]12CC=C3C=C4CC[C@@H](O)C[C@]45CC[C@]3(O5)[C@@H]1CC[C@@H]2c1ccc2ccncc2c1 [Compound A, (3S,3aR,9R,10aR,12aS,12bR)-3-(isoquinolin-7-yl)-3a-methyl-1,2,3,3a,4,7,8,9,10,11,12,12b-dodecahydro-10a,12a-epoxybenzo[4,5]cyclohepta[1,2-e]inden-9-ol] | 4 nM | 3.26 µM | 5.73 µM | 0.90 | 2330 nM | 5 | 3.61 µM | 1.30 | 1230 nM | < 10% | –
2 | C[C@]12CC=C3C=C4CC[C@@H](N5C[C@H](O)[C@@H](O)C5)C[C@]45CC[C@]3(O5)[C@@H]1CC[C@@H]2c1ccc2ccncc2c1 [Compound D] | – | – | – | – | – | – | – | – | – | – | > 1000 nM
